The record followed here is patent US10758534B2 (Vertex Pharmaceuticals Incorporated, priority 2014, dated 2020).

Each structure is given as a SMILES string.

In this assay the target is T1, F508del (Homo sapiens, UniProt P13569, DEL508-508).
T1 construct: expressed in transfected cells
T1 sequence (P13569 with tags, fused parts or gaps DEL508-508): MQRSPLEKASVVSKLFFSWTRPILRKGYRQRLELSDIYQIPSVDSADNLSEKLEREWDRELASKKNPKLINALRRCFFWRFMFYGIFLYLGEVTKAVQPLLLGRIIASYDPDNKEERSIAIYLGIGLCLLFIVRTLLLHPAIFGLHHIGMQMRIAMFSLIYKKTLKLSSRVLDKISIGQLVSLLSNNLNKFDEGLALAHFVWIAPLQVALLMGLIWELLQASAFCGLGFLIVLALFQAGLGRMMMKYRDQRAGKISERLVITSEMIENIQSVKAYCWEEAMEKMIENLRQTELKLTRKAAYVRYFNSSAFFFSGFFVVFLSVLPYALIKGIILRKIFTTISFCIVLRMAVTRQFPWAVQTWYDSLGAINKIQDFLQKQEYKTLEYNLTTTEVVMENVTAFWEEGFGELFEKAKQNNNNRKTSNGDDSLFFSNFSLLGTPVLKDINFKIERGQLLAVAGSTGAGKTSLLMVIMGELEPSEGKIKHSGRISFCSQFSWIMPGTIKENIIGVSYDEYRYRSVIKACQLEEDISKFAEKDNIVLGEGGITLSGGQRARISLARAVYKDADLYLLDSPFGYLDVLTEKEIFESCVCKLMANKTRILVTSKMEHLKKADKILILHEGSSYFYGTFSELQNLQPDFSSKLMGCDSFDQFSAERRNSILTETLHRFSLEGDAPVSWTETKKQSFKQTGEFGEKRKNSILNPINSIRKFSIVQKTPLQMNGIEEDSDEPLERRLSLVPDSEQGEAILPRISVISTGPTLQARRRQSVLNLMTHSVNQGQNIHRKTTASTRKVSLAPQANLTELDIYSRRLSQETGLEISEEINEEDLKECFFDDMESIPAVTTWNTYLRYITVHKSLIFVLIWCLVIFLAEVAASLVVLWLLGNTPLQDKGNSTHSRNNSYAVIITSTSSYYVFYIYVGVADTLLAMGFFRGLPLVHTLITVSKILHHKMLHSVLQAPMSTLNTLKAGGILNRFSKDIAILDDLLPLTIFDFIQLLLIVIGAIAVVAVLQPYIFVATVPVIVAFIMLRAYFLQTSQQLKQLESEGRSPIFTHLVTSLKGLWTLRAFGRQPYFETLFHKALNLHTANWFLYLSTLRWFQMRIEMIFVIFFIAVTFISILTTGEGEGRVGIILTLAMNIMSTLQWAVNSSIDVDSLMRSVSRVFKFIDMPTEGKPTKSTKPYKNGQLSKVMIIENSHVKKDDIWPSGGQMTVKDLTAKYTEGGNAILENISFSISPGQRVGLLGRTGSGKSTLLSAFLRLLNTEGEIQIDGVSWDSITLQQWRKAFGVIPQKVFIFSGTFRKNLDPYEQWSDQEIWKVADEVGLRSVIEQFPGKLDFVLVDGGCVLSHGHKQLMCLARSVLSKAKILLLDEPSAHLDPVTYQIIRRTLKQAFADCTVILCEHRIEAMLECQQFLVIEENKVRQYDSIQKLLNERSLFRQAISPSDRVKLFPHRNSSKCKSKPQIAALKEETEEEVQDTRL
In words: Protocol 1: membrane potential optical assay (FLIPR III, voltage sensing dye), identification of potentiator compounds. The conditions noted are these: Table 3, compounds of Table 1. The assay is classed as cell-based. Put shortly: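 Gating potentiation is read as a membrane-potential fluorescence change (FLIPR III, voltage-sensing dye) after one forskolin addition under a Cl− gradient, with gluconate replacing chloride, pH 7.4. Cells are F508del-expressing NIH3T3 mouse fibroblasts held 24 h at 27 °C and exposed to compound before dye loading.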
As for `CC(C)(C)c1ccc(C(=O)NS(=O)(=O)c2cccc(N)n2)c(N2CCC[C@@H](c3ccccc3)C2)n1` [Compound 1261, N-[(6-amino-2-pyridyl)sulfonyl]-6-tert-butyl-2-[(3S)-3-phenyl-1-piperidyl]pyridine-3-carboxamide], the EC30 entry is given as “+++ (“+++” means <3 uM)”.
To `Cc1cc(C)c(Oc2nc(C3CCC(C(F)(F)F)CC3)ccc2C(=O)NS(=O)(=O)c2cccc(N)n2)c(C)c1` (centres unmarked) [Compound 1519, N-[(6-amino-2-pyridyl)sulfonyl]-6-[4-(trifluoromethyl)cyclohexyl]-2-(2,4,6-trimethylphenoxy)pyridine-3-carboxamide] belongs “+++ (“+++” means <3 uM)”.
For `CCOc1cccc2c1CN(Cc1ccccc1C)C2(C)C(=O)NS(=O)(=O)c1cccc(N)n1` (centres unmarked) [Compound 1408, N-[(6-amino-2-pyridyl)sulfonyl]-4-ethoxy-1-methyl-2-(o-tolylmethyl)isoindoline-1-carboxamide] the value was “+++ (“+++” means <3 uM)”.
To `COc1cc(-c2ccc(C(=O)NS(=O)(=O)c3cccc(N)n3)c(Oc3c(C)cc(C)cc3C)n2)ccc1F` [Compound 919, N-[(6-amino-2-pyridyl)sulfonyl]-6-(4-fluoro-3-methoxy-phenyl)-2-(2,4,6-trimethylphenoxy)pyridine-3-carboxamide] belongs “+++ (“+++” means <3 uM)”.
On to `CC(C)COc1cc(F)cc(-c2ccc(C(=O)NS(=O)(=O)c3ccn[nH]3)c(N3CCCC(F)C3)n2)c1` (centres unmarked) [Compound 878, 6-(3-fluoro-5-isobutoxy-phenyl)-2-(3-fluoro-1-piperidyl)-N-(1H-pyrazol-5-ylsulfonyl)pyridine-3-carboxamide], for which the EC30 result was “++ (“++” means between 3 uM and 10 uM)”.
Regarding `C[C@@H]1CN(c2nc(-n3ccc(OCC(C)(C)C)n3)ccc2C(=O)NS(=O)(=O)c2cccc(N)n2)C(C)(C)C1` [Compound 1952, N-[(6-amino-2-pyridyl)sulfonyl]-6-[3-(2,2-dimethylpropoxy)pyrazol-1-yl]-2-[(4S)-2,2,4-trimethylpyrrolidin-1-yl]pyridine-3-carboxamide], the EC30 entry is “+++ (“+++” means <3 uM)”.
As for `CCc1ccc(-c2ccc(C(=O)NS(=O)(=O)c3cccc(N)n3)c(Oc3c(C)cc(C)cc3C)n2)cc1` [Compound 900, N-[(6-amino-2-pyridyl)sulfonyl]-6-(4-ethylphenyl)-2-(2,4,6-trimethylphenoxy)pyridine-3-carboxamide], the EC30 entry is “+++ (“+++” means <3 uM)”.
For `Cn1ccc2cccc(Oc3nc(C(C)(C)C)ccc3C(=O)NS(=O)(=O)c3cccc(N)n3)c21` [Compound 1071, N-[(6-amino-2-pyridyl)sulfonyl]-6-tert-butyl-2-(1-methylindol-7-yl)oxy-pyridine-3-carboxamide] the value was “+++ (“+++” means <3 uM)”; for `Cc1ccc(-c2ccc(C(=O)NS(=O)(=O)c3cccc(N)n3)c(N3CC(C)CC3(C)C)n2)nc1OCC(C)(C)C` (centres unmarked) [Compound 1610, N-[(6-amino-2-pyridyl)sulfonyl]-6-[6-(2,2-dimethylpropoxy)-5-methyl-2-pyridyl]-2-(2,2,4-trimethylpyrrolidin-1-yl)pyridine-3-carboxamide], “+++ (“+++” means <3 uM)”; for `CC(C)COc1cc(F)cc(-c2ccc(C(=O)NS(=O)(=O)c3cccc(N)n3)c(OCC3CCCCC3)n2)c1` [Compound 1395, N-[(6-amino-2-pyridyl)sulfonyl]-2-(cyclohexylmethoxy)-6-(3-fluoro-5-isobutoxy-phenyl)pyridine-3-carboxamide], “+++ (“+++” means <3 uM)”.
To `Cc1cc(C)c(Oc2nc(-c3ccccc3)cc(C)c2C(=O)NS(=O)(=O)c2cccc(N)n2)c(C)c1` [Compound 1102, N-[(6-amino-2-pyridyl)sulfonyl]-4-methyl-6-phenyl-2-(2,4,6-trimethylphenoxy)pyridine-3-carboxamide] belongs “+++ (“+++” means <3 uM)”; to `Cc1cccc(C)c1Cn1nc(C(C)(C)C)cc1C(=O)NS(=O)(=O)c1cccc2cc[nH]c12` [Compound 1358, 5-tert-butyl-2-[(2,6-dimethylphenyl)methyl]-N-(1H-indol-7-ylsulfonyl)pyrazole-3-carboxamide], “+++ (“+++” means <3 uM)”.
As for `COc1ccc(-c2ccc(C(=O)NS(=O)(=O)c3cc[nH]n3)c(Oc3c(C)cc(C)cc3C)n2)cc1` [Compound 1033, 6-(4-methoxyphenyl)-N-(1H-pyrazol-3-ylsulfonyl)-2-(2,4,6-trimethylphenoxy)pyridine-3-carboxamide], the EC30 entry is “+++ (“+++” means <3 uM)”.
For the molecule `COc1cc(F)c(F)cc1-c1ccc(C(=O)NS(=O)(=O)c2ccc[nH]c2=O)c(N2C[C@@H](C)CC2(C)C)n1` [Compound 1904, 6-(4,5-difluoro-2-methoxy-phenyl)-N-[(2-oxo-1H-pyridin-3-yl)sulfonyl]-2-[(4S)-2,2,4-trimethylpyrrolidin-1-yl]pyridine-3-carboxamide], the EC30 result is “+++ (“+++” means <3 uM)”.
Take `COc1cccc(-c2nc(N3CC(C)CC3(C)C)c(C(=O)NS(=O)(=O)c3cccc(N)n3)cc2C)c1` (centres unmarked) [Compound 833, N-[(6-amino-2-pyridyl)sulfonyl]-6-(3-methoxyphenyl)-5-methyl-2-(2,2,4-trimethylpyrrolidin-1-yl)pyridine-3-carboxamide]: the EC30 result is recorded as “+++ (“+++” means <3 uM)”.
On to `CC(C)COc1cc(F)cc(-c2ccc(C(=O)NS(=O)(=O)c3ccccn3)c(N3CC(C)CC3(C)C)n2)c1` (centres unmarked) [Compound 1063, 6-(3-fluoro-5-isobutoxy-phenyl)-N-(2-pyridylsulfonyl)-2-(2,2,4-trimethylpyrrolidin-1-yl)pyridine-3-carboxamide], for which the EC30 entry is “+++ (“+++” means <3 uM)”.
On to `CC(C)CN(C)c1cc(-c2ccc(C(=O)NS(=O)(=O)c3cccc(N)n3)c(N3CC(C)CC3(C)C)n2)ccn1` (centres unmarked) [Compound 898, N-[(6-amino-2-pyridyl)sulfonyl]-6-[2-[isobutyl(methyl)amino]-4-pyridyl]-2-(2,2,4-trimethylpyrrolidin-1-yl)pyridine-3-carboxamide], for which the EC30 result is given as “+++ (“+++” means <3 uM)”.
For `COc1ccccc1S(=O)(=O)NC(=O)c1cc(C(C)(C)C)nn1Cc1c(C)cccc1C` [Compound 1551, 5-tert-butyl-2-[(2,6-dimethylphenyl)methyl]-N-(2-methoxyphenyl)sulfonyl-pyrazole-3-carboxamide] the value was “+++ (“+++” means <3 uM)”.
Regarding `CCOC1CCN(c2nc(-c3cc(F)cc(OCC(C)C)c3)ccc2C(=O)NS(=O)(=O)c2ccn[nH]2)CC1` [Compound 1155, 2-(4-ethoxy-1-piperidyl)-6-(3-fluoro-5-isobutoxy-phenyl)-N-(1H-pyrazol-5-ylsulfonyl)pyridine-3-carboxamide], the EC30 result is “++ (“++” means between 3 uM and 10 uM)”.
`CC1CN(c2ncc(C3=CC4CCC3(C)C4(C)C)cc2C(=O)NS(=O)(=O)c2cccc(N)n2)C(C)(C)C1` (centres unmarked) [Compound 1544, N-[(6-amino-2-pyridyl)sulfonyl]-5-(4,7,7-trimethyl-3-bicyclo[2.2.1]hept-2-enyl)-2-(2,2,4-trimethylpyrrolidin-1-yl)pyridine-3-carboxamide]: the EC30 entry is given as “+++ (“+++” means <3 uM)”.
